This is an account of results in patent US20240279214A1, “ALPHA4 BETA7 INEGRIN ANTAGONISTS AND USES THEREOF” (XinThera, Inc., priority 2022, published 2024).

Where two headings read alike, the source gives them in different places.

For this data set the following is noted: ether bond, 13-membered ring, 100.0 °C.

Where the note is “from CCOC(=O)C[C@H](NC(=O)C(c1cc(Br)ccc1F)n1cc(CCN2CC(F)C2)c(C(F)(F)F)cc1=O)c1cc(-c2c(C)cc(C(C)(C)O)cc2O)cc(C)c1F, CuI/(1R,2R)-N1,N2-dimethylcyclohexane-1,2-diamine/K2CO3, 1,4-dioxane, 40.0 mM, 16.0 h”, `CCOC(=O)C[C@@H]1NC(=O)C(n2cc(CCN3CC(F)C3)c(C(F)(F)F)cc2=O)c2cc(ccc2F)Oc2cc(C(C)(C)O)cc(C)c2-c2cc(C)c(F)c1c2` (stereo partly shown) displayed a ring closure, isolated yield of 28.3%.

`CCOC(=O)C[C@@H]1NC(=O)C(n2cc(CCN3CC(F)C3)c(C(F)(F)F)cc2=O)c2cc(ccc2F)Oc2cc(C(F)(F)F)cc(C)c2-c2cc(C)c(F)c1c2` (stereo partly shown) had a ring closure, isolated yield (from CCOC(=O)C[C@H](NC(=O)C(c1cc(Br)ccc1F)n1cc(CCN2CC(F)C2)c(C(F)(F)F)cc1=O)c1cc(-c2c(C)cc(C(F)(F)F)cc2O)cc(C)c1F, CuI/K2CO3/(1R,2R)-N1,N2-dimethylcyclohexane-1,2-diamine, 1,4-dioxane, 30.0 mM, 16.0 h) of 55%. As for `CCOC(=O)C[C@@H]1NC(=O)C(n2cc(CCN3CC(F)C3)c(C(F)(F)F)cc2=O)c2cc(ccc2F)Oc2cc(C)cc(C)c2-c2cc(C)c(F)c1c2` (stereo partly shown), the ring closure, isolated yield (from CCOC(=O)C[C@H](NC(=O)C(c1cc(Br)ccc1F)n1cc(CCN2CC(F)C2)c(C(F)(F)F)cc1=O)c1cc(-c2c(C)cc(C)cc2O)cc(C)c1F, CuI/K2CO3/(1R,2R)-N1,N2-dimethylcyclohexane-1,2-diamine, dioxane, 66.0 mM, 16.0 h) stood at 49.3%. Take `CCOC(=O)C[C@@H]1NC(=O)C(n2cc(CCN3CC(F)C3)c(C(F)(F)F)cc2=O)c2cc(ccc2F)Oc2cc(C3COC3)cc(C)c2-c2cc(C)c(F)c1c2` (stereo partly shown): the ring closure, isolated yield (from CCOC(=O)C[C@H](NC(=O)C(c1cc(Br)ccc1F)n1cc(CCN2CC(F)C2)c(C(F)(F)F)cc1=O)c1cc(-c2c(C)cc(C3COC3)cc2O)cc(C)c1F, CuI/(1R,2R)-N1,N2-dimethylcyclohexane-1,2-diamine/K2CO3, 1,4-dioxane, 25.0 mM, 1.0 h) was determined as 31.8%.

`CCOC(=O)C[C@@H]1NC(=O)C(n2cc(CCN3CC(F)C3)c(C(F)(F)F)cc2=O)c2cc(ccc2F)Oc2cc(N3C4CCC3COC4)cc(C)c2-c2cc(C)c(F)c1c2` (stereo partly shown) gave a ring closure, isolated yield (from CCOC(=O)C[C@H](NC(=O)C(c1cc(Br)ccc1F)n1cc(CCN2CC(F)C2)c(C(F)(F)F)cc1=O)c1cc(-c2c(C)cc(N3C4CCC3COC4)cc2O)cc(C)c1F, CuI/(1R,2R)-N1,N2-dimethylcyclohexane-1,2-diamine/K2CO3, dioxane, 27.5 mM, 16.0 h) of 54.8%.

On to `CCOC(=O)C[C@@H]1NC(=O)C(n2cc(CCN3CC(F)C3)c(C(F)(F)F)cc2=O)c2cc(ccc2F)Oc2cc(N3CC(OC)C3)cc(C)c2-c2cc(C)c(F)c1c2` (stereo partly shown), for which the ring closure, isolated yield (from CCOC(=O)C[C@H](NC(=O)C(c1cc(Br)ccc1F)n1cc(CCN2CC(F)C2)c(C(F)(F)F)cc1=O)c1cc(-c2c(C)cc(N3CC(OC)C3)cc2O)cc(C)c1F, CuI/(1R,2R)-N1,N2-dimethylcyclohexane-1,2-diamine/K2CO3, 1,4-dioxane, 30.0 mM, 2.0 h) is 59.2%. In turn, `CCOC(=O)C[C@@H]1NC(=O)C(n2cc(CCN3CC(F)C3)c(C(F)(F)F)cc2=O)c2cc(ccc2F)Oc2ccc(F)cc2-c2cc(C)c(F)c1c2` (stereo partly shown) gave a ring closure, isolated yield (from CCOC(=O)C[C@H](NC(=O)C(c1cc(Br)ccc1F)n1cc(CCN2CC(F)C2)c(C(F)(F)F)cc1=O)c1cc(-c2cc(F)ccc2O)cc(C)c1F, CuI/(1R,2R)-N1,N2-dimethylcyclohexane-1,2-diamine/K2CO3, dioxane, 95.0 mM, 3.0 h) of 54.4%.

As for `CCOC(=O)C[C@@H]1NC(=O)C(n2cc(CCN3CC(F)C3)c(C(F)(F)F)cc2=O)c2cc(ccc2F)Oc2cccc(C)c2-c2cc(C)c(F)c1c2` (stereo partly shown), where the note is “from CCOC(=O)C[C@H](NC(=O)C(c1cc(Br)ccc1F)n1cc(CCN2CC(F)C2)c(C(F)(F)F)cc1=O)c1cc(-c2c(C)cccc2O)cc(C)c1F, CuI/N1,N2-dimethylcyclohexane-1,2-diamine/K2CO3, dioxane, 18.7 mM, 16.0 h”, the ring closure, isolated yield was 72.5%. In the case of `CCOC(=O)C[C@@H]1NC(=O)C(n2cc(CCN3CC(F)C3)c(C(F)(F)F)cc2=O)c2cc(ccc2F)Oc2cccc(C)c2-c2cc(C)c(F)c1c2F` (stereo partly shown), the ring closure, isolated yield (from CCOC(=O)C[C@H](NC(=O)C(c1cc(Br)ccc1F)n1cc(CCN2CC(F)C2)c(C(F)(F)F)cc1=O)c1c(F)c(C)cc(-c2c(C)cccc2O)c1F, CuI/K2CO3/(1R,2R)-N1,N2-dimethylcyclohexane-1,2-diamine, 1,4-dioxane, 48.0 mM) stood at 72%. As to `CCOC(=O)C[C@@H]1NC(=O)C(n2cc(CCN3CC(F)C3)c(C(F)(F)F)cc2=O)c2cc(ccc2F)Oc2cccc(C)c2-c2cc1c(C)s2` (stereo partly shown), the ring closure, isolated yield (from CCOC(=O)C[C@H](NC(=O)C(c1cc(Br)ccc1F)n1cc(CCN2CC(F)C2)c(C(F)(F)F)cc1=O)c1cc(-c2c(C)cccc2O)sc1C, CuI/K2CO3/(1R,2R)-N1,N2-dimethylcyclohexane-1,2-diamine, dioxane, 26.0 mM) stood at 55.7%.

In turn, `CCOC(=O)C[C@@H]1NC(=O)C(n2cc(CCN3CC(F)C3)c(C(F)(F)F)cc2=O)c2cccc(c2)Oc2cc(C(F)(F)F)cc(C)c2-c2cc1c(F)c(C(F)(F)F)c2` (stereo partly shown) yielded a ring closure, isolated yield (from CCOC(=O)C[C@H](NC(=O)C(c1cccc(Br)c1)n1cc(CCN2CC(F)C2)c(C(F)(F)F)cc1=O)c1cc(-c2c(C)cc(C(F)(F)F)cc2O)cc(C(F)(F)F)c1F, CuI/(1R,2R)-N1,N2-dimethylcyclohexane-1,2-diamine/K2CO3, dioxane, 22.0 mM, 16.0 h) of 38.4%.

For `CCOC(=O)C[C@@H]1NC(=O)C(n2cc(CCN3CC(F)C3)c(C(F)(F)F)cc2=O)c2cccc(c2)Oc2cc(C)cc(C)c2-c2cc1c(F)c(C(F)(F)F)c2` (stereo partly shown), for the setting “from CCOC(=O)C[C@H](NC(=O)C(c1cccc(Br)c1)n1cc(CCN2CC(F)C2)c(C(F)(F)F)cc1=O)c1cc(-c2c(C)cc(C)cc2O)cc(C(F)(F)F)c1F, CuI/(1R,2R)-N1,N2-dimethylcyclohexane-1,2-diamine/K2CO3, dioxane, 28.3 mM, 16.0 h”, the ring closure, isolated yield is 66.2%. For the compound `CCOC(=O)C[C@@H]1NC(=O)C(n2cc(CCN3CC(F)C3)c(C(F)(F)F)cc2=O)c2cccc(c2)Oc2cccc(C(F)(F)F)c2-c2cc1c(F)c(C(F)(F)F)c2` (stereo partly shown), the ring closure, isolated yield (from CCOC(=O)C[C@H](NC(=O)C(c1cccc(Br)c1)n1cc(CCN2CC(F)C2)c(C(F)(F)F)cc1=O)c1cc(-c2c(O)cccc2C(F)(F)F)cc(C(F)(F)F)c1F, CuI/N1,N2-dimethylcyclohexane-1,2-diamine/K2CO3, dioxane, 14.7 mM, 16.0 h) was found to be 46.7%.

`CCOC(=O)C[C@@H]1NC(=O)C(n2cc(CCN3CC(F)C3)c(C(F)(F)F)cc2=O)c2cccc(c2)Oc2cccc(C)c2-c2cc(C3CC3)c(F)c1c2` (stereo partly shown): the ring closure, isolated yield (from CCOC(=O)C[C@H](NC(=O)C(c1cccc(Br)c1)n1cc(CCN2CC(F)C2)c(C(F)(F)F)cc1=O)c1cc(-c2c(C)cccc2O)cc(C2CC2)c1F, CuI/(1R,2R)-N1,N2-dimethylcyclohexane-1,2-diamine/K2CO3, dioxane, 26.1 mM, 16.0 h) was 82.3%. As for `CCOC(=O)C[C@@H]1NC(=O)C(n2cc(CCN3CC(F)C3)c(C(F)(F)F)cc2=O)c2cccc(c2)Oc2cccc(Cl)c2-c2cc1c(F)c(C(F)(F)F)c2` (stereo partly shown), the ring closure, isolated yield (from CCOC(=O)C[C@H](NC(=O)C(c1cccc(Br)c1)n1cc(CCN2CC(F)C2)c(C(F)(F)F)cc1=O)c1cc(-c2c(O)cccc2Cl)cc(C(F)(F)F)c1F, CuI/N1,N2-dimethylcyclohexane-1,2-diamine/K2CO3, dioxane, 15.3 mM, 16.0 h) came to 55.1%. For the compound `CCOC(=O)C[C@@H]1NC(=O)C(n2cc(CCN3CC(F)C3)cc(C)c2=O)c2cc(ccc2F)Oc2cccc(C)c2-c2cc(C)c(F)c1c2` (stereo partly shown), the ring closure, isolated yield (from CCOC(=O)C[C@H](NC(=O)C(c1cc(Br)ccc1F)n1cc(CCN2CC(F)C2)cc(C)c1=O)c1cc(-c2c(C)cccc2O)cc(C)c1F, CuI/K2CO3/(1R,2R)-N1,N2-dimethylcyclohexane-1,2-diamine, 1,4-dioxane, 20.0 mM, 16.0 h) is 70.9%. Where the note is “from CCOC(=O)C[C@H](NC(=O)C(c1cc(Br)ccc1F)n1cc(CCN2CCC(F)(F)CC2)c(C(F)(F)F)cc1=O)c1cc(-c2c(C)cccc2O)cc(C)c1F, CuI/K2CO3/(1R,2R)-N1,N2-dimethylcyclohexane-1,2-diamine, 1,4-dioxane, 36.3 mM, 16.0 h”, `CCOC(=O)C[C@@H]1NC(=O)C(n2cc(CCN3CCC(F)(F)CC3)c(C(F)(F)F)cc2=O)c2cc(ccc2F)Oc2cccc(C)c2-c2cc(C)c(F)c1c2` (stereo partly shown) yielded a ring closure, isolated yield of 66.2%. The compound `CCOC(=O)C[C@@H]1NC(=O)C(n2cc(CCOC)c(C(F)(F)F)cc2=O)c2cc(ccc2F)Oc2cccc(C)c2-c2cc(C)c(F)c1c2` (stereo partly shown) yielded a ring closure, isolated yield (from CCOC(=O)C[C@H](NC(=O)C(c1cc(Br)ccc1F)n1cc(CCOC)c(C(F)(F)F)cc1=O)c1cc(-c2c(C)cccc2O)cc(C)c1F, CuI/K2CO3/(1R,2S)-N1,N2-dimethylcyclohexane-1,2-diamine, dioxane, 65.0 mM) of 27.9%. `CCOC(=O)C[C@@H]1NC(=O)C(n2ccc(C(F)(F)F)c(CC)c2=O)c2cc(ccc2F)Oc2cccc(C)c2-c2cc(C)c(F)c1c2` (stereo partly shown) showed a ring closure, isolated yield (from CCOC(=O)C[C@H](NC(=O)C(c1cc(Br)ccc1F)n1ccc(C(F)(F)F)c(CC)c1=O)c1cc(-c2c(C)cccc2O)cc(C)c1F, CuI/(1R,2R)-N,N'-dimethylcyclohexane-1,2-diamine/K2CO3, 1,4-dioxane, 20.0 mM, 16.0 h) of 56.1%.

Take `CCOC(=O)C[C@@H]1NC(=O)C(n2ccc(C(F)(F)F)c(OC)c2=O)c2cc(ccc2F)Oc2cccc(C)c2-c2cc(C)c(F)c1c2` (stereo partly shown): under “from CCOC(=O)C[C@H](NC(=O)C(c1cc(Br)ccc1F)n1ccc(C(F)(F)F)c(OC)c1=O)c1cc(-c2c(C)cccc2O)cc(C)c1F, CuI/(1S,2S)-N,N'-dimethylcyclohexane-1,2-diamine/K2CO3, 1,4-dioxane, 13.5 mM”, the ring closure, isolated yield came out at 67.3%. Where the note is “from CCOC(=O)C[C@H](NC(=O)C(c1cc(Br)ccc1F)n1ccc(C(F)(F)F)cc1=O)c1cc(-c2c(C)cc(OC)cc2O)cc(C)c1F, CuI/K2CO3/(1R,2R)-N1,N2-dimethylcyclohexane-1,2-diamine, 1,4-dioxane, 70.0 mM, 2.0 h”, `CCOC(=O)C[C@@H]1NC(=O)C(n2ccc(C(F)(F)F)cc2=O)c2cc(ccc2F)Oc2cc(OC)cc(C)c2-c2cc(C)c(F)c1c2` (stereo partly shown) yielded a ring closure, isolated yield of 67.3%. The compound `CCOC(=O)C[C@@H]1NC(=O)C(n2ccc(C(F)(F)F)cc2=O)c2cc(ccc2F)Oc2cccc(C)c2-c2cc(C)c(F)c1c2` (stereo partly shown) returned a ring closure, isolated yield (from CCOC(=O)C[C@H](NC(=O)C(c1cc(Br)ccc1F)n1ccc(C(F)(F)F)cc1=O)c1cc(-c2c(C)cccc2O)cc(C)c1F, CuI/(1R,2R)-N1,N2-dimethylcyclohexane-1,2-diamine/K2CO3, 1,4-dioxane, 40.0 mM, 16.0 h) of 88.7%.
